Legend:
[1] = tested on: mRNA expressed from the genes (A) to (D) in rat liver; assay: Behavior of genes (mRNA expression level, oligo-DNA microarray) in rat liver after 28-day oral administration; type: in vivo
Experimental: A test solution was prepared by dissolving each of the carcinogens and the non-carcinogens shown in Tables 2 to 6 in the corresponding solvent shown in Tables 2 to 6. Each of the thus prepared test solutions and the solvents used for the preparation was administered by oral gavage to rats in each group. As the rats, male rats (F344 SPF rats) at 5 weeks of age obtained from Charles River Laboratories Japan, Inc. were used. The animals were divided into groups, each containing four individuals. The volume of the solvent administered to the vehicle control group was set to the same volume as that of the test solution administered to the carcinogen administration group or the non-carcinogen administration group. The administration of the test solution or the solvent was performed once daily for 28 days. Apiece was excised from the liver of each of the rats after a lapse of 28 days from the initiation of the administration, and the total RNA was extracted and purified.
The expression level of mRNA was compared between each of the chemical substance administration groups and the corresponding vehicle control group, and genes that satisfy the requirements described in (A) to (D) were selected, respectively.
The case where the expression level of mRNA in the carcinogen administration group or the non-carcinogen administration group is 1.5 times or more or 1/1.5 or less of the expression level of the corresponding mRNA expressed in the control group was determined to be significant. In this connection, the determination as to whether or not the change is significant was performed by taking into consideration the direction of increase or decrease in the expression level. In the case where the direction of increase or decrease is different as compared with the case where another carcinogen was administered, the change was determined to be not significant.

rodent = settings: classification of the substance (C+/C−); cited from earlier work
[2] = gene group (A), Unigene No. Rn.167075, mRNA vs vehicle control group
[3] = gene group (C), Unigene No. Rn.120914, mRNA vs vehicle control group

ClC(Cl)Cl [TS056, Chloroform]
Behavior of gene caused by administration of chemical substance, Gene No. 154 ([1]; rat, in vivo): + | Behavior of gene caused by administration of chemical substance, Gene No. 533 ([1]; rat, in vivo): + | Behavior of gene caused by administration of chemical substance, Gene No. 725 ([1]; rat, in vivo): + | Behavior of gene caused by administration of chemical substance, Gene No. 813 ([1]; rat, in vivo): + | Behavior of gene caused by administration of chemical substance, Gene No. 893 ([1]; rat, in vivo): + | Behavior of gene caused by administration of chemical substance, Gene No. 1119 ([1]; rat, in vivo): + | Behavior of gene caused by administration of chemical substance, Gene No. 1131 ([1]; rat, in vivo): + | Behavior of gene caused by administration of chemical substance, Gene No. 1163 ([1]; rat, in vivo): + | Behavior of gene caused by administration of chemical substance, Gene No. 1334 ([1]; rat, in vivo): + | Behavior of gene caused by administration of chemical substance, Gene No. 1494 ([1]; rat, in vivo): + | Behavior of gene caused by administration of chemical substance, Gene No. 1562 ([1]; rat, in vivo): + | Behavior of gene caused by administration of chemical substance, Gene No. 1741 ([1]; rat, in vivo): + | Behavior of gene caused by administration of chemical substance, Gene No. 1993 ([1]; rat, in vivo): + | Behavior of gene caused by administration of chemical substance, Gene No. 2026 ([1]; rat, in vivo): + | Behavior of gene caused by administration of chemical substance, Gene No. 2045 ([1]; rat, in vivo): − | Behavior of gene caused by administration of chemical substance, Gene No. 2203 ([1]; rat, in vivo): − | Behavior of gene caused by administration of chemical substance, Gene No. 2494 ([1]; rat, in vivo): + | Behavior of gene caused by administration of chemical substance, Gene No. 2546 ([1]; rat, in vivo): + | Behavior of gene caused by administration of chemical substance, Gene No. 3776 ([1]; rat, in vivo): + | Behavior of gene caused by administration of chemical substance, Gene No. 3929 ([1]; rat, in vivo): + | Behavior of gene caused by administration of chemical substance, Gene No. 4095 ([1]; rat, in vivo): + | Behavior of gene caused by administration of chemical substance, Gene No. 4218 ([1]; rat, in vivo): − | Behavior of gene caused by administration of chemical substance, Gene No. 4846 ([1]; rat, in vivo): − | Behavior of gene caused by administration of chemical substance, Gene No. 4973 ([1]; rat, in vivo): + | Behavior of gene caused by administration of chemical substance, Gene No. 5600 ([1]; rat, in vivo): − | Behavior of gene caused by administration of chemical substance, Gene No. 5634 ([1]; rat, in vivo): + | Behavior of gene caused by administration of chemical substance, Gene No. 5726 ([1]; rat, in vivo): − | Behavior of gene caused by administration of chemical substance, Gene No. 5878 ([1]; rat, in vivo): + | Behavior of gene caused by administration of chemical substance, Gene No. 6026 ([1]; rat, in vivo): + | Behavior of gene caused by administration of chemical substance, Gene No. 6182 ([1]; rat, in vivo): − | Behavior of gene caused by administration of chemical substance, Gene No. 6303 ([1]; rat, in vivo): + | Behavior of gene caused by administration of chemical substance, Gene No. 6620 ([1]; rat, in vivo): + | Behavior of gene caused by administration of chemical substance, Gene No. 6742 ([1]; rat, in vivo): + | Carcinogenicity (rodent): C+

O=[N+]([O-])c1cc[n+]([O-])c2ccccc12 [TS049, 4-Nitroquinoline-1-oxide]
Behavior of gene caused by administration of chemical substance, Gene No. 4846 ([1]; gene group (A), Unigene No. Rn.144554, mRNA vs vehicle control group): − | Behavior of gene caused by administration of chemical substance, Gene No. 2026 [1, 2]: − | Behavior of gene caused by administration of chemical substance, Gene No. 4218 [1, 2]: − | Behavior of gene caused by administration of chemical substance, Gene No. 6182 ([1]; gene group (A), Unigene No. Rn.5834, mRNA vs vehicle control group): − | Behavior of gene caused by administration of chemical substance, Gene No. 5600 ([1]; gene group (A), Unigene No. Rn.9836, mRNA vs vehicle control group): − | Behavior of gene caused by administration of chemical substance, Gene No. 1494 ([1]; gene group (B), Unigene No. Rn.1430, mRNA vs vehicle control group): − | Behavior of gene caused by administration of chemical substance, Gene No. 2045 ([1]; gene group (B), Unigene No. Rn.19329, mRNA vs vehicle control group): − | Behavior of gene caused by administration of chemical substance, Gene No. 2203 ([1]; gene group (B), Unigene No. Rn.21240, mRNA vs vehicle control group): − | Behavior of gene caused by administration of chemical substance, Gene No. 533 ([1]; gene group (C), Unigene No. Rn.106184, mRNA vs vehicle control group): − | Behavior of gene caused by administration of chemical substance, Gene No. 725 ([1]; gene group (C), Unigene No. Rn.108075, mRNA vs vehicle control group): − | Behavior of gene caused by administration of chemical substance, Gene No. 1163 ([1]; gene group (C), Unigene No. Rn.11766, mRNA vs vehicle control group): − | Behavior of gene caused by administration of chemical substance, Gene No. 4973 ([1]; gene group (C), Unigene No. Rn.118529, mRNA vs vehicle control group): − | Behavior of gene caused by administration of chemical substance, Gene No. 4095 ([1]; gene group (C), Unigene No. Rn.119024, mRNA vs vehicle control group): − | Behavior of gene caused by administration of chemical substance, Gene No. 1334 [1, 3]: − | Behavior of gene caused by administration of chemical substance, Gene No. 6620 [1, 3]: − | Behavior of gene caused by administration of chemical substance, Gene No. 6303 ([1]; gene group (C), Unigene No. Rn.123063, mRNA vs vehicle control group): − | Behavior of gene caused by administration of chemical substance, Gene No. 5878 ([1]; gene group (C), Unigene No. Rn.143213, mRNA vs vehicle control group): − | Behavior of gene caused by administration of chemical substance, Gene No. 1131 ([1]; gene group (C), Unigene No. Rn.144946, mRNA vs vehicle control group): − | Behavior of gene caused by administration of chemical substance, Gene No. 1562 ([1]; gene group (C), Unigene No. Rn.14744, mRNA vs vehicle control group): − | Behavior of gene caused by administration of chemical substance, Gene No. 1741 ([1]; gene group (C), Unigene No. Rn.1647, mRNA vs vehicle control group): − | Behavior of gene caused by administration of chemical substance, Gene No. 893 ([1]; gene group (C), Unigene No. Rn.164817, mRNA vs vehicle control group): − | Behavior of gene caused by administration of chemical substance, Gene No. 6026 ([1]; gene group (C), Unigene No. Rn.167685, mRNA vs vehicle control group): − | Behavior of gene caused by administration of chemical substance, Gene No. 154 ([1]; gene group (C), Unigene No. Rn.185941, mRNA vs vehicle control group): − | Behavior of gene caused by administration of chemical substance, Gene No. 1993 ([1]; gene group (C), Unigene No. Rn.18728, mRNA vs vehicle control group): − | Behavior of gene caused by administration of chemical substance, Gene No. 813 ([1]; gene group (C), Unigene No. Rn.201760, mRNA vs vehicle control group): − | Behavior of gene caused by administration of chemical substance, Gene No. 2494 ([1]; gene group (C), Unigene No. Rn.23969, mRNA vs vehicle control group): − | Behavior of gene caused by administration of chemical substance, Gene No. 2546 ([1]; gene group (C), Unigene No. Rn.24561, mRNA vs vehicle control group): − | Behavior of gene caused by administration of chemical substance, Gene No. 3776 ([1]; gene group (C), Unigene No. Rn.43232, mRNA vs vehicle control group): − | Behavior of gene caused by administration of chemical substance, Gene No. 3929 ([1]; gene group (C), Unigene No. Rn.4620, mRNA vs vehicle control group): − | Behavior of gene caused by administration of chemical substance, Gene No. 1119 ([1]; gene group (C), Unigene No. Rn.9757, mRNA vs vehicle control group): − | Behavior of gene caused by administration of chemical substance, Gene No. 6742 ([1]; gene group (C), Unigene No. Rn.9779, mRNA vs vehicle control group): − | Behavior of gene caused by administration of chemical substance, Gene No. 5634 ([1]; gene group (C), Unigene No. Rn.9862, mRNA vs vehicle control group): − | Behavior of gene caused by administration of chemical substance, Gene No. 5726 ([1]; gene group (D), Unigene No. Rn.9939, mRNA vs vehicle control group): +

— US20110039721A1, “METHOD FOR PREDICTION ABOUT CARCINOGENICITY OF SUBSTANCE IN RODENT” (Chemicals Evaluation and Research Institute, priority 2007, published 2011)
